Assay results: patent US6586606B2, “Process for the preparation of 3-aryl-benzofuran-2-ones” (Ciba Specialty Chemicals Corporation, priority 2000, dated 2003)

Tests used:
[1] = Stabilisation of polyethylene in permanent contact with water (extraction test, oxidation induction time); settings: 0.05% compound (302) with 0.10% Irganox 1010, 0.05% Irgafos, 0.10% calcium stearate in PE-HD; deionised water, 50 days at 80° C.
Procedure: Stabilisation of polyethylene which is in permanent contact with water.
0.10% by weight of calcium stearate and a stabilizer mixture comprising 0.10% by weight of Irganox®1010 (pentaerythritol tetrakis[3-(3,5-di-tert-butyl-4-hydroxyphenyl)propionate]), 0.05% by weight of Irgafos®68 (tris(2,4-di-tert-butylphenyl)phosphite) and 0.05% by weight of compound (302) (Table 3) is added dry to a polyethylene polymer (Hostalene® CRP 100; PE-HD) taken direct from a reactor and are incorporated therein in a Pappenmaier mixer (type 20) within 2 minutes.
In an extruder, of Schwabenthan, the stabilized polyethylene is homogenised and processed to granulate. For the extraction tests in water, 200 mm by 150 mm by 2 mm test plates are pressed from the granulate of the individual formulations using a table press. To ease the demoulding of the test plates, the pressing process is carried out between two aluminium foils. […]
The test plates are subjected to the above test conditions for 50 days at 80° C. Upon termination of the extraction test, the residual stabilizer content and the oxidation induction time of the test plates are determined.
The residual content of sterically hindered phenol, Irganox®1010, is determined using an internal standard in an HPLC appliance of the Spectra Physics SP 8800 type, equipped with autosampler and UV/VIS detector of the Spectra 200 type. […]

## CC(C)(C)c1cc2c(c(C(C)(C)C)c1)OC(=O)C2c1ccccc1 (centres unmarked) [(101), 5,7-di-tert-butyl-3-phenyl-3H-benzofuran-2-one]
other
  melting point: 116 to 119 °C

## COc1ccc(-c2c(N)oc3c(C(C)(C)C)cc(C(C)(C)C)cc23)cc1OC [(303), 2-amino-5,7-di-tert-butyl-3-(3,4-dimethoxyphenyl)-benzofurane]
other
  melting point: 172 to 174 °C

## CC(C)(C)c1cc(C(C)(C)C)c2oc(N)c(-c3ccccc3)c2c1 [Compound (301), 2-amino-3-phenyl-5,7-di-tert-butyl-benzofurane]
other
  melting point: 174 to 178 °C

## Cc1ccc(-c2c(N)oc3c(C(C)(C)C)cc(C(C)(C)C)cc23)cc1C [Compound (302), 2-amino-5,7-di-tert-butyl-3-(3,4-dimethylphenyl)-benzofurane]
[1]
  stability of polyolefins in permanent contact with extracting media: improved
other
  melting point: 128 to 130 °C
